Values after ≈ are worked out from the molar mass of the structure shown.
Assays:
[1] = solubility in physiological saline; assay type: physicochemical
Method: Solubility: 5 mg/ml (physiological saline)
In the tables, solubility means a solubility in physiological saline.

BDF1 mice = assay: toxicity, intraperitoneal administration to BDF1 mice, 20 days observation; assay type: in vivo, mouse; settings: 25 mg/kg, 4 times once a day, observed for 20 days
Text: Further, the taxol derivative of the present invention or a pharmaceutically acceptable salt thereof has low toxicity and high water solubility.

[2] = test system: ovary cancer and cancers of thymus and others; settings: cited from earlier work
various kinds of cancers = settings: cited from earlier work
[3] = cited from earlier work
[4] = methanesulfonate, medium not printed at the place

Row | Compound | solubility ([1]; physiological saline) [µg/mL] | other results
1 | CCOC(=O)[C@@H](N)CC(=O)OCC(=O)O[C@@H](C(=O)O[C@H]1C[C@@]2(O)[C@@H](OC(=O)c3ccccc3)[C@@H]3[C@]4(OC(C)=O)CO[C@@H]4C[C@H](O)[C@@]3(C)C(=O)[C@H](O)C(=C1C)C2(C)C)[C@@H](NC(=O)OC(C)(C)C)c1ccccc1 [Example 32, 4α-acetoxy-13α-{(2R,3S)-3-tert-butoxycarbonylamino-2-[((3S)-3-amino-3-ethoxycarbonylpropionyloxy)acetoxy]-3-phenylpropionyloxy}-2α-benzoyloxy-5β,20-epoxy-1β,7β,10β-trihydroxytax-11-en-9-one.methanesulfonate] | 5000 | solubility [1, 4]: 5000 µg/mL; death (BDF1 mice): no case of death was observed
2 | CCOC(=O)[C@@H](N)CC(=O)OCC(=O)O[C@@H](C(=O)O[C@H]1C[C@@]2(O)[C@@H](OC(=O)c3ccccc3)[C@@H]3[C@]4(OC(C)=O)CO[C@@H]4C[C@H](O)[C@@]3(C)C(=O)[C@H](O)C(=C1C)C2(C)C)[C@@H](NC(=O)OC(C)(C)C)c1ccc(F)cc1F [Example 52] | 1000 (≈ 957 µM) | 
3 | CCOC(=O)[C@@H](N)CC(=O)OCC(=O)O[C@@H](C(=O)O[C@H]1C[C@@]2(O)[C@@H](OC(=O)c3ccccc3)[C@@H]3[C@]4(OC(C)=O)CO[C@@H]4C[C@H](O)[C@@]3(C)C(=O)[C@H](O)C(=C1C)C2(C)C)[C@@H](NC(=O)OCC1C(C)(C)C1(F)F)c1ccccc1 (some centres unmarked) [Example 45] | 600 (≈ 560 µM) | 
4 | CCOC(=O)[C@@H](N)CC(=O)OCC(=O)O[C@@H](C(=O)O[C@H]1C[C@@]2(O)[C@@H](OC(=O)c3ccccc3)[C@@H]3[C@]4(OC(C)=O)CO[C@@H]4C[C@H](O)[C@@]3(C)C(=O)[C@H](O)C(=C1C)C2(C)C)[C@@H](NC(=O)CCCCCl)c1ccccc1 [Example 42] | 5000 (≈ 4870 µM) | 
5 | COCCOC(=O)[C@@H](N)CC(=O)OCC(=O)O[C@@H](C(=O)O[C@H]1C[C@@]2(O)[C@@H](OC(=O)c3ccccc3)[C@@H]3[C@]4(OC(C)=O)CO[C@@H]4C[C@H](O)[C@@]3(C)C(=O)[C@H](O)C(=C1C)C2(C)C)[C@@H](NC(=O)OC(C)(C)C)c1ccc(F)cc1F [Example 57] | 5000 (≈ 4650 µM) | 
6 | CC(=O)O[C@H]1C(=O)[C@@]2(C)[C@H]([C@H](OC(=O)c3ccccc3)[C@]3(O)C[C@H](OC(=O)[C@H](O)[C@@H](NC(=O)c4ccccc4)c4ccccc4)C(C)=C1C3(C)C)[C@]1(OC(C)=O)CO[C@@H]1C[C@@H]2O [taxol, 4α,10β-diacetoxy-2α-benzoyloxy-5β,20-epoxy-1β,7β-dihydroxy-13α-[(2R,3S)-3-phenyl-3-benzoylamino-2-hydroxypropionyloxy]-tax-11-en-9-one] |  | antitumor activities [2]: excellent antitumor activities; anti-tumor activity (various kinds of cancers): excellent anti-tumor activity; water-solubility [3]: ≤ 4 µg/mL
7 | CC(=O)O[C@@]12CO[C@@H]1C[C@H](O)[C@@]1(C)C(=O)[C@H](O)C3=C(C)[C@@H](OC(=O)[C@H](O)[C@@H](NC(=O)OC(C)(C)C)c4ccccc4)C[C@@](O)([C@@H](OC(=O)c4ccccc4)[C@H]21)C3(C)C [4α-acetoxy-2α-benzoyloxy-5β,20-epoxy-1β,7β,10β-trihydroxy-13α-[(2R,3S)-3-phenyl-3-(t-butoxycarbonylamino)-2-hydroxypropionyloxy]-tax-11-en-9-one] |  | antitumor activities [2]: excellent antitumor activities
8 | CCOC(=O)[C@@H](N)CC(=O)OCC(=O)O[C@@H](C(=O)O[C@H]1C[C@@]2(O)[C@@H](OC(=O)c3ccccc3)[C@@H]3[C@]4(OC(C)=O)CO[C@@H]4C[C@H](O)[C@@]3(C)C(=O)[C@H](O)C(=C1C)C2(C)C)[C@@H](NC(=O)OCC1CC1)c1ccccc1 [Example 49] | 5000 (≈ 4960 µM) | 
9 | CCOC(=O)[C@@H](N)CC(=O)OCC(=O)O[C@@H](C(=O)O[C@H]1C[C@@]2(O)[C@@H](OC(=O)c3ccccc3)[C@@H]3[C@]4(OC(C)=O)CO[C@@H]4C[C@H](O)[C@@]3(C)C(=O)[C@H](O)C(=C1C)C2(C)C)[C@@H](NC(=O)c1cc(OC)ccc1OC)c1ccccc1 [Example 43] | 500 (≈ 466 µM) | 
10 | CC(=O)O[C@@]12CO[C@@H]1C[C@H](O)[C@@]1(C)C(=O)[C@H](O)C3=C(C)[C@@H](OC(=O)[C@H](OC(=O)COC(=O)CCN)[C@@H](NC(=O)c4ccccc4)c4ccccc4)C[C@@](O)([C@@H](OC(=O)c4ccccc4)[C@H]21)C3(C)C [Example 38] | 1000 (≈ 1060 µM) | 
11 | CCOC(=O)[C@@H](N)CC(=O)OCC(=O)O[C@@H](C(=O)O[C@H]1C[C@@]2(O)[C@@H](OC(=O)c3ccccc3)[C@@H]3[C@]4(OC(C)=O)CO[C@@H]4C[C@H](O)[C@@]3(C)C(=O)[C@H](O)C(=C1C)C2(C)C)[C@@H](NC(=O)OCC(F)(F)F)c1ccccc1 [Example 46] | 5000 (≈ 4830 µM) | 
12 | CCOC(=O)[C@@H](N)CC(=O)OCC(=O)O[C@@H](C(=O)O[C@H]1C[C@@]2(O)[C@@H](OC(=O)c3ccccc3)[C@@H]3[C@]4(OC(C)=O)CO[C@@H]4C[C@H](O)[C@@]3(C)C(=O)[C@H](OC(C)=O)C(=C1C)C2(C)C)[C@@H](NC(=O)c1ccccc1)c1ccccc1 [Example 59, 4α,10β-diacetoxy-13α-{(2R,3S)-3-benzoylamino-2-[((3S)-3-amino-3-ethoxycarbonylpropionyloxy)acetoxy]-3-phenylpropionyloxy}-2α-benzoyloxy-5β,20-epoxy-1β,7β-dihydroxytax-l 1-en-9-one.methanesulfonate] | 300 | 
13 | CC(=O)O[C@@]12CO[C@@H]1C[C@H](O)[C@@]1(C)C(=O)[C@H](O)C3=C(C)[C@@H](OC(=O)[C@H](OC(=O)COC(=O)[C@@H]4CCCN4)[C@@H](NC(=O)OC(C)(C)C)c4ccccc4)C[C@@](O)([C@@H](OC(=O)c4ccccc4)[C@H]21)C3(C)C [Example 33] | 1400 (≈ 1450 µM) | 
14 | CCOC(=O)N[C@@H](c1ccccc1)[C@@H](OC(=O)COC(=O)C[C@H](N)C(=O)OCC)C(=O)O[C@H]1C[C@@]2(O)[C@@H](OC(=O)c3ccccc3)[C@@H]3[C@]4(OC(C)=O)CO[C@@H]4C[C@H](O)[C@@]3(C)C(=O)[C@H](O)C(=C1C)C2(C)C [Example 44] | 4000 (≈ 4080 µM) | 
15 | CC(=O)O[C@@]12CO[C@@H]1C[C@H](O)[C@@]1(C)C(=O)[C@H](O)C3=C(C)[C@@H](OC(=O)[C@H](OC(=O)COC(=O)CNC(=O)CN)[C@@H](NC(=O)OC(C)(C)C)c4ccccc4)C[C@@](O)([C@@H](OC(=O)c4ccccc4)[C@H]21)C3(C)C [Example 34] | 10000 (≈ 10200 µM) | 
16 | CCOC(=O)[C@@H](N)CC(=O)OCCCCC(=O)O[C@@H](C(=O)O[C@H]1C[C@@]2(O)[C@@H](OC(=O)c3ccccc3)[C@@H]3[C@]4(OC(C)=O)CO[C@@H]4C[C@H](O)[C@@]3(C)C(=O)[C@H](O)C(=C1C)C2(C)C)[C@@H](NC(=O)OC(C)(C)C)c1ccccc1 [Example 37] | 1000 (≈ 951 µM) | 
17 | COCCOC(=O)[C@@H](N)CC(=O)OCC(=O)O[C@@H](C(=O)O[C@H]1C[C@@]2(O)[C@@H](OC(=O)c3ccccc3)[C@@H]3[C@]4(OC(C)=O)CO[C@@H]4C[C@H](O)[C@@]3(C)C(=O)[C@H](O)C(=C1C)C2(C)C)[C@@H](NC(=O)OC(C)(C)C)c1ccccc1 [Example 35, 4α-acetoxy-13α-{(2R,3S)-3-tert-butoxycarbonylamino-2-[((3S)-3-amino-3-(2-methoxyethoxycarbonyl)propionyloxy)acetoxy]-3-phenylpropionyloxy}-2α-benzoyloxy-5β,20-epoxy-1β,7β,10β-trihydroxytax-11-en-9-one.methanesulfonate] | 10000 | solubility [1, 4]: 10000 µg/mL; death (BDF1 mice): no case of death was observed
18 | CCOC(=O)[C@@H](N)CC(=O)OCC(=O)O[C@@H](C(=O)O[C@H]1C[C@@]2(O)[C@@H](OC(=O)c3ccccc3)[C@@H]3[C@]4(OC(C)=O)CO[C@@H]4C[C@H](O)[C@@]3(C)C(=O)[C@H](O)C(=C1C)C2(C)C)[C@@H](NC(=O)OC(C)(C)C)c1ccc(OC)cc1 [Example 56] | 15000 (≈ 14400 µM) | 
19 | CC(=O)O[C@@]12CO[C@@H]1C[C@H](O)[C@@]1(C)C(=O)[C@H](O)C3=C(C)[C@@H](OC(=O)[C@H](OC(=O)COC(=O)[C@H](C)N)[C@@H](NC(=O)OC(C)(C)C)c4ccccc4)C[C@@](O)([C@@H](OC(=O)c4ccccc4)[C@H]21)C3(C)C [Example 36] | 2000 (≈ 2130 µM) | 
20 | CCOC(=O)[C@@H](N)CC(=O)OCC(=O)O[C@@H](C(=O)O[C@H]1C[C@@]2(O)[C@@H](OC(=O)c3ccccc3)[C@@H]3[C@]4(OC(C)=O)CO[C@@H]4C[C@H](O)[C@@]3(C)C(=O)[C@H](O)C(=C1C)C2(C)C)[C@@H](NC(=O)OCC1CCC1)c1ccccc1 [Example 48] | 1000 (≈ 979 µM) | 
21 | CCOC(=O)[C@@H](N)CC(=O)OCC(=O)O[C@@H](C(=O)O[C@H]1C[C@@]2(O)[C@@H](OC(=O)c3ccccc3)[C@@H]3[C@]4(OC(C)=O)CO[C@@H]4C[C@H](O)[C@@]3(C)C(=O)[C@H](O)C(=C1C)C2(C)C)[C@@H](NC(=O)c1cccs1)c1ccccc1 [Example 41] | 700 (≈ 687 µM) | 
22 | CCOC(=O)[C@@H](N)CC(=O)OCC(=O)O[C@@H](C(=O)O[C@H]1C[C@@]2(O)[C@@H](OC(=O)c3ccccc3)[C@@H]3[C@]4(OC(C)=O)CO[C@@H]4C[C@H](O)[C@@]3(C)C(=O)[C@H](O)C(=C1C)C2(C)C)[C@@H](NC(=O)OCCOC)c1ccccc1 [Example 47] | > 10000 | 
23 | CCOC(=O)[C@@H](N)CC(=O)OCC(=O)O[C@@H](C(=O)O[C@H]1C[C@@]2(O)[C@@H](OC(=O)c3ccccc3)[C@@H]3[C@]4(OC(C)=O)CO[C@@H]4C[C@H](O)[C@@]3(C)C(=O)[C@H](O)C(=C1C)C2(C)C)[C@@H](NC(=O)c1ccco1)c1ccccc1 [Example 40] | 6000 (≈ 5980 µM) | 

— patent US5677470A, “Baccatin derivatives and processes for preparing the same” (Tanabe Seiyaku Co., Ltd., priority 1994, dated 1997)
